Marks after values point to notes of the source that are not given here.
Assays:
[1] = tested on: acetaminophen induced liver injury; test: Acetaminophen induced liver injury in mice; assay type: in vivo; conditions: for ALT / AST: 10 days
Method: Ethyl 11-deoxy-18α-glycyrrhetinate: provided by traditional Chinese medicine laboratory, R&D center of Jiangsu Chia Tai Tianqing Pharmaceutical Co., Ltd. Bifendate pills: produced by Beijing Union Pharmaceutical factory. Daily dosage of human is 45 mg, used as the positive control medicine. Acetaminophen: produced by Jinzhou biochemical pharmaceutical factory. All medicines were prepared to desired concentrations with physiological saline according to the requirement of experiment. AST, ALT Kit: product of Nanjing Jiancheng bioengineering research institute.
60 mice were randomly divided into 6 groups: the normal control group, Bifendate group (positive medicine group), model control group, various doses of ethyl 11-deoxy-18α-glycyrrhetinate groups (240, 120, 60 mg/kg). After the animals were adaptively fed for 3 days, animals in each group were administered the medicines by gastric infusion for 10 days (one time/day). Animals in the normal control group and model group were administered 0.2 ml/mouse of physiological saline. 6 hours after the last administration, animals in each group, except the animals in normal control group, were intraperitoneally injected 400 mg kg-1 acetaminophen. After 12 hours, blood was taken by orbital bleeding. Activities of alanine aminotransferase (ALT), aspartate aminotransferase (AST) were measured. And T test of groups was performed, see table 7;

[2] = tested on: BCG + LPS induced liver injury; test: BCG+LPS induced liver injury in mice; assay type: in vivo, Kunming mice; conditions: for ALT / AST: 7 days
[3] = tested on: TAA induced acute liver injury; test: TAA induced acute liver injury mouse model; assay type: in vivo, ICR male mice; set-up: Average grade of hepatocyte necrosis: scale not given here; conditions: for Grade of hepatocyte necrosis 0 (number of mice) / Grade of hepatocyte necrosis 1 (number of mice) / Grade of hepatocyte necrosis 2 (number of mice) / Grade of hepatocyte necrosis 3 (number of mice) / Grade of hepatocyte necrosis 4 (number of mice): N=10
Method: 50 ICR male mice were randomly divided into 5 groups of 10 mice in each group: the model group, diammonium glycyrrhizinate group (240 mg/kg), high dose of ethyl 11-deoxy-18α-glycyrrhetinate group (240 mg/kg), middle dose of ethyl 11-deoxy-18α-glycyrrhetinate group (120 mg/kg), and low dose of ethyl 11-deoxy-18α-glycyrrhetinate group (60 mg/kg). The mice in model group were administered equal amount of 0.5% CMC-Na by IG.

[4] = tested on: D-Galn induced acute liver injury; test: D-Galn induced acute liver injury mouse model; assay type: in vivo, ICR male mice
Method: 1. Comparison of therapeutic effects of ethyl 11-deoxy-18α-glycyrrhetinate and compound glycyrrhizin injection on ICR male mouse models of the D-Galn induced acute liver injury
Methods: 60 ICR male mice were randomly divided into 6 groups of 10 mice in each group: the model group, compound glycyrrhizin injection group (60 mg/kg), compound glycyrrhizin gastric infusion group (240 mg /kg), high dose of ethyl 11-deoxy-18α-glycyrrhetinate group (240 mg/kg), middle dose of ethyl 11-deoxy-18α-glycyrrhetinate group (120 mg/kg), low dose of ethyl 11-deoxy-18α-glycyrrhetinate group (60 mg/kg). […] The mice in model group were administered equal amount of 0.5% CMC-Na by gastric infusion.

[5] = tested on: carrageenan-induced rat paw edema; test: Carrageenan-induced rat paw swelling; assay type: in vivo, male SD rats
Method: Rat paw edema was induced by injecting carrageenan, and we observed the swelling to evaluate the anti-inflammatory effect. Wherein:
• Animals: male SD rats, 150-180 g; • Inflammatory Agent: carrageenan; • Test Medicine: ethyl 11-deoxy-18α-glycyrrhetinate was dissolved in 1% CMC-Na to get the desired concentration; • Positive Control Medicine: indomethacin was dissolved in 1% CMC-Na to get the desired concentration;
50 rats were randomly divided into 5 groups of 10 rats in each group: the model group, positive control group (administering indomethacin 10 mg/kg), various doses of the test medicine groups (30, 60, 120 mg/kg). The animals in each group were administered continuously for 3 days. Before the last administration, the volumes of the left hind feet of the rats were measured by micropipette method. Then the animals were administered the test medicines or CMC-Na by gastric infusion. 1 hour later, freshly prepared carrageenan was injected subcutaneously into left hind feet of the rats according to the dosage of 0.05 ml/paw by using a 0.25 ml syringe and NO. 4 needle. The volume of left hind feet of the rats was measured by the method mentioned above at time points of 1, 3, 4, 5 and 7 hours after administration, each point 2 times, and the average values were calculated. The difference of these values between before and after inflammation was called swelling degree.
Data was presented as x±s. T test of the average of two samples was used to compare the experimental data of each group. P<0.05 or P<0.01 was regarded to be statistically significant.

[6] = Table 2 experiment, 60 mg/kg IP, 7 days
[7] = Table 2 experiment, 240 mg/kg IG, 7 days
[8] = Table 1 experiment, 60 mg/kg IG, daily for 6 days
[9] = Table 1 experiment, 120 mg/kg IG, daily for 6 days
[10] = Table 1 experiment, 240 mg/kg IG, daily for 6 days
[11] = Table 2 experiment, 60 mg/kg IG, 7 days
[12] = Table 2 experiment, 120 mg/kg IG, 7 days

## COC(=O)c1cc(OC)c2c(c1-c1c(C(=O)OC)cc(OC)c3c1OCO3)OCO2 [Bifendate, reference compound]
[1]; 5.85 mg/kg gastric infusion
  ALT: 134.6 ± 12.9 U/L
  AST: 162.3 ± 31.7 U/L
[2]; 5.85 mg/kg gastric infusion
  ALT: 110.5 ± 11.9 U/L
  AST: 152.3 ± 41.6 U/L

## CC1(C)[C@@H](O[C@H]2O[C@H](C(=O)O)[C@@H](O)[C@H](O)[C@H]2O[C@@H]2O[C@H](C(=O)O)[C@@H](O)[C@H](O)[C@H]2O)CC[C@]2(C)[C@H]3C(=O)C=C4[C@@H]5C[C@@](C)(C(=O)O)CC[C@]5(C)CC[C@@]4(C)[C@]3(C)CC[C@@H]12.N.N [Diammonium glycyrrhizinate, diammonium glycyrrhizinate, reference compound]
[3]; 240 mg/kg IG
  ALT: 1568 ± 721 U/ml
  ALT Inhibition %: 31%
  AST: 1039 ± 623 U/ml
  AST Inhibition %: 40%
  Average grade of hepatocyte necrosis: 1.3**
  Grade of hepatocyte necrosis 0 (number of mice): 0
  Grade of hepatocyte necrosis 1 (number of mice): 7
  Grade of hepatocyte necrosis 2 (number of mice): 3
  Grade of hepatocyte necrosis 3 (number of mice): 0
  Grade of hepatocyte necrosis 4 (number of mice): 0
[4]; [6]
  ALT: 383 ± 393 U/ml
  ALT Inhibition %: 80%
  AST: 308 ± 389 U/ml
  AST Inhibition %: 73%
[4]; [7]
  ALT: 993 ± 479 U/ml
  ALT Inhibition %: 49%
  AST: 566 ± 291 U/ml
  AST Inhibition %: 50%

## CCOC(=O)C1(C)CCC2(C)CCC3(C)C(=CCC4C5(C)CCC(O)C(C)(C)C5CCC43C)C2C1 (stereo not drawn) [Ethyl 11-deoxy-18α-glycyrrhetinate, ethyl 11-deoxy-18α-glycyrrhetinate]
[1]; 60 mg/kg gastric infusion
  ALT: 172.0 ± 39.8 U/L
  AST: 203.5 ± 55.4 U/L
[1]; 120 mg/kg gastric infusion
  ALT: 133.3 ± 28.7 U/L
  AST: 158.1 ± 46.9 U/L
[1]; 240 mg/kg gastric infusion
  ALT: 119.4 ± 15.2 U/L
  AST: 122.3 ± 28.0 U/L
[1]; mouse, in vivo
  Reduction of AST, ALT and protection against hepatocyte injury (in words): can reduce AST, ALT, and effectively protect against the acetaminophen induced hepatocyte injury
[3]; 60 mg/kg IG
  ALT: 1177 ± 701 U/ml
  ALT Inhibition %: 48%
  AST: 940 ± 582 U/ml
  AST Inhibition %: 45%
  Average grade of hepatocyte necrosis: 1.4*
  Grade of hepatocyte necrosis 0 (number of mice): 1
  Grade of hepatocyte necrosis 1 (number of mice): 4
  Grade of hepatocyte necrosis 2 (number of mice): 5
  Grade of hepatocyte necrosis 3 (number of mice): 0
  Grade of hepatocyte necrosis 4 (number of mice): 0
[3]; 120 mg/kg IG
  ALT: 1117 ± 707 U/ml
  ALT Inhibition %: 51%
  AST: 823 ± 530 U/ml
  AST Inhibition %: 52%
  Average grade of hepatocyte necrosis: 1.3**
  Grade of hepatocyte necrosis 0 (number of mice): 1
  Grade of hepatocyte necrosis 1 (number of mice): 5
  Grade of hepatocyte necrosis 2 (number of mice): 4
  Grade of hepatocyte necrosis 3 (number of mice): 0
  Grade of hepatocyte necrosis 4 (number of mice): 0
[3]; 240 mg/kg IG
  ALT: 992 ± 558 U/ml
  ALT Inhibition %: 56%
  AST: 738 ± 258 U/ml
  AST Inhibition %: 57%
  Average grade of hepatocyte necrosis: 1.2**
  Grade of hepatocyte necrosis 0 (number of mice): 1
  Grade of hepatocyte necrosis 1 (number of mice): 6
  Grade of hepatocyte necrosis 2 (number of mice): 3
  Grade of hepatocyte necrosis 3 (number of mice): 0
  Grade of hepatocyte necrosis 4 (number of mice): 0
[2]; 60 mg/kg gastric infusion
  ALT: 105.3 ± 18.61 U/L
  AST: 227.2 ± 59.7 U/L
[2]; 120 mg/kg gastric infusion
  ALT: 108.7 ± 20.0 U/L
  AST: 190.1 ± 43.3 U/L
[2]; 240 mg/kg gastric infusion
  ALT: 89.4 ± 13.2 U/L
  AST: 169.3 ± 38.4 U/L
[2]; mouse, in vivo
  Protection of liver and reduction of enzyme activity (in words): has good activity of protecting liver and reducing enzyme activity
[4]; [8]
  ALT: 833 ± 564 U/ml
  ALT Inhibition %: 60%
  AST: 777 ± 533 U/ml
  AST Inhibition %: 60%
[4]; [9]
  ALT: 474 ± 345 U/ml
  ALT Inhibition %: 77%
  AST: 414 ± 340 U/ml
  AST Inhibition %: 79%
[4]; [10]
  ALT: 311 ± 256 U/ml
  ALT Inhibition %: 85%
  AST: 317 ± 214 U/ml
  AST Inhibition %: 84%
[4]; [11]
  ALT: 767 ± 739 U/ml
  ALT Inhibition %: 61%
  AST: 353 ± 256 U/ml
  AST Inhibition %: 69%
[4]; [12]
  ALT: 452 ± 432 U/ml
  ALT Inhibition %: 77%
  AST: 292 ± 215 U/ml
  AST Inhibition %: 74%
[4]; [7]
  ALT: 372 ± 440 U/ml
  ALT Inhibition %: 81%
  AST: 266 ± 192 U/ml
  AST Inhibition %: 77%
[5]; 30 mg/kg gastric infusion, 1 h
  Swelling degree of the feet after inflammation: 0.20 ± 0.10 mL
[5]; 30 mg/kg gastric infusion, 3 h
  Swelling degree of the feet after inflammation: 0.27 ± 0.10 mL
[5]; 30 mg/kg gastric infusion, 4 h
  Swelling degree of the feet after inflammation: 0.33 ± 0.11 mL
[5]; 30 mg/kg gastric infusion, 5 h
  Swelling degree of the feet after inflammation: 0.39 ± 0.11 mL
[5]; 30 mg/kg gastric infusion, 7 h
  Swelling degree of the feet after inflammation: 0.27 ± 0.12 mL
[5]; 60 mg/kg gastric infusion, 1 h
  Swelling degree of the feet after inflammation: 0.17 ± 0.08 mL
[5]; 60 mg/kg gastric infusion, 3 h
  Swelling degree of the feet after inflammation: 0.29 ± 0.15 mL
[5]; 60 mg/kg gastric infusion, 4 h
  Swelling degree of the feet after inflammation: 0.37 ± 0.11 mL
[5]; 60 mg/kg gastric infusion, 5 h
  Swelling degree of the feet after inflammation: 0.37 ± 0.07 mL
[5]; 60 mg/kg gastric infusion, 7 h
  Swelling degree of the feet after inflammation: 0.29 ± 0.09 mL
[5]; 120 mg/kg gastric infusion, 1 h
  Swelling degree of the feet after inflammation: 0.20 ± 0.05 mL
[5]; 120 mg/kg gastric infusion, 3 h
  Swelling degree of the feet after inflammation: 0.32 ± 0.11 mL
[5]; 120 mg/kg gastric infusion, 4 h
  Swelling degree of the feet after inflammation: 0.34 ± 0.09 mL
[5]; 120 mg/kg gastric infusion, 5 h
  Swelling degree of the feet after inflammation: 0.42 ± 0.12 mL
[5]; 120 mg/kg gastric infusion, 7 h
  Swelling degree of the feet after inflammation: 0.28 ± 0.09 mL
[5]; 30, 60, 120 mg/kg
  Inhibition of carrageenan-induced swelling of the rat feet (in words): began to inhibit the swelling of the rat feet induced by carrageenan after 4 hours

## COc1ccc2c(c1)c(CC(=O)O)c(C)n2C(=O)c1ccc(Cl)cc1 [Indomethacin, indomethacin, reference compound]
[5]; 10 mg/kg gastric infusion, 1 h
  Swelling degree of the feet after inflammation: 0.13 ± 0.05 mL
[5]; 10 mg/kg gastric infusion, 3 h
  Swelling degree of the feet after inflammation: 0.17 ± 0.07 mL
[5]; 10 mg/kg gastric infusion, 4 h
  Swelling degree of the feet after inflammation: 0.24 ± 0.09 mL
[5]; 10 mg/kg gastric infusion, 5 h
  Swelling degree of the feet after inflammation: 0.22 ± 0.06 mL
[5]; 10 mg/kg gastric infusion, 7 h
  Swelling degree of the feet after inflammation: 0.16 ± 0.05 mL
